# According to the supplement of paper PMC4977894:
# Counter-ions that a name gives are not always drawn. ± gives the standard deviation of the averaged measurements.
# Key:
# [1] = system: Homo sapiens (human subject panel, olfactory perception); assay: perceived odor familiarity rating (rating 0-100); higher = more familiar
# Outline: (§1)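 For each molecule, 1 mL diluted in paraffin oil was sniffed at high and low concentrations by 55 healthy human subjects aged 18–50, with the six lowest performers excluded. Presentation order was randomized over ten visits of 100 stimuli. Subjects who reported smelling a stimulus moved a computerized slider from its starting position of 50, and positions were converted to a 0–100 scale. The familiarity, intensity and pleasantness ratings are averaged across subjects.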
# [2] = system: Homo sapiens (human subject panel, olfactory perception); assay: perceived odor intensity rating (rating 0-100); higher = stronger perceived smell
# Outline: as §1
# [3] = system: Homo sapiens (human subject panel, olfactory perception); assay: perceived odor pleasantness rating (rating 0-100); higher = more pleasant
# Outline: as §1
# [4] = odor dilution in paraffin oil: 1/100,000
# [5] = odor dilution in paraffin oil: 1/10,000,000
# [6] = odor dilution in paraffin oil: 1/1,000
# [7] = odor dilution in paraffin oil: 1/10
SMILES,"perceived odor familiarity rating [1, 4]","perceived odor familiarity rating [1, 5]","perceived odor intensity rating [2, 4]","perceived odor intensity rating [2, 5]","perceived odor pleasantness rating [3, 4]","perceived odor pleasantness rating [3, 5]","perceived odor familiarity rating [1, 6]","perceived odor intensity rating [2, 6]","perceived odor pleasantness rating [3, 6]","perceived odor familiarity rating [1, 7]","perceived odor intensity rating [2, 7]","perceived odor pleasantness rating [3, 7]"
"CC1=C(O)C(=O)OC1C (stereo not given) [4,5-Dimethyl-3-hydroxy-2,5-dihydrofuran-2-one]",64.4 ± 25,42.7 ± 32,72.6 ± 21,41.8 ± 30,59.5 ± 29,46.1 ± 26,,,,,,
CCCCCCOC=O [Hexyl Formate],35.5 ± 28,,33.9 ± 30,,42.2 ± 23,,42.8 ± 32,60.7 ± 29,49 ± 28,,,
CC(=O)c1cccs1 [2-Acetylthiophene],42.4 ± 30,44.9 ± 30,43.9 ± 29,25.3 ± 28,46 ± 23,52.4 ± 25,,,,,,
Cc1ccccc1S [o-Toluenethiol],54.8 ± 28,36.9 ± 24,72.8 ± 24,30.2 ± 31,24.8 ± 24,47.9 ± 18,,,,,,
CCCCOC(=O)[C@H](C)O [Butyl (S)-(-)-lactate],39.5 ± 25,,33.6 ± 34,,48.8 ± 23,,50.4 ± 32,55.5 ± 29,50.2 ± 28,,,
COC(=O)c1ccccc1O [methyl salicylate],38.1 ± 32,,16.7 ± 22,,56.7 ± 21,,63.9 ± 32,71.9 ± 22,60.8 ± 26,,,
CSCC[C@H](N)C(=O)O [L-Methionine],,,,,,,41.6 ± 30,48.3 ± 34,31.5 ± 25,45.7 ± 36,78.9 ± 23,18.4 ± 21
CCCCCCCCCC=O [decanal],,,,,,,44 ± 30,59.9 ± 25,33.3 ± 23,51.9 ± 35,78.9 ± 20,28.7 ± 23
CC/C=C\CCO [cis-3-Hexen-1-ol],60.5 ± 30,,39.7 ± 28,,60 ± 22,,69.6 ± 30,81.9 ± 16,51 ± 31,,,
CCCCCCOC(=O)CCC [hexyl butyrate],35.8 ± 27,,19.4 ± 21,,43.9 ± 16,,44.1 ± 30,45.6 ± 34,34.1 ± 25,,,
C=CC(CCCCC)OC(C)=O (stereo not given) [1-Octen-3-yl acetate],32.8 ± 27,,26.4 ± 26,,42.9 ± 24,,35.2 ± 29,55.9 ± 29,34.1 ± 22,,,
CCOC(=O)CCCCCCCCC(=O)OCC [Diethyl sebacate],,,,,,,31.3 ± 31,21.4 ± 25,55.5 ± 26,64.7 ± 28,54.7 ± 27,71.3 ± 21
C=CCOC(=O)CCCCC [allyl hexanoate],34.4 ± 29,,24.9 ± 27,,49.2 ± 19,,64.1 ± 27,57.3 ± 29,71.8 ± 22,,,
O=C(O)CC1CCCCC1 [Cyclohexaneacetic acid],32.8 ± 25,,29.4 ± 30,,37.6 ± 23,,46.9 ± 28,69.9 ± 22,28.8 ± 22,,,
CCCCC(CC)COC(C)=O (stereo not given) [2-ethylhexyl acetate],32.7 ± 29,,24.6 ± 31,,51.3 ± 22,,38.6 ± 29,44.4 ± 32,42 ± 22,,,
CC1(C)C2CC=C(C=O)C1C2 [(1R)-(-)-Myrtenal],48.3 ± 31,40.7 ± 33,62.4 ± 26,33.8 ± 31,40.3 ± 25,50.1 ± 24,,,,,,
CCCOC(C)=O [propyl acetate],41.6 ± 28,,24.5 ± 26,,49 ± 20,,55.1 ± 30,43.8 ± 36,43.5 ± 24,,,
C=CCCCCO [5-Hexen-1-ol],42.6 ± 30,,26 ± 25,,49.2 ± 23,,43.7 ± 33,62.2 ± 32,48 ± 28,,,
CC(=O)OCCc1scnc1C [4-Methyl-5-thiazoleethanol acetate],45.9 ± 32,,38 ± 30,,41.9 ± 24,,53.8 ± 31,66.3 ± 26,34.4 ± 25,,,
COc1cc(C=O)ccc1O [vanillin],,,,,,,80.7 ± 21,74.4 ± 22,84 ± 20,82.6 ± 18,72.1 ± 23,86.3 ± 15
CCCCCCCCO [octanol],38.3 ± 26,,25 ± 27,,46.2 ± 24,,51.7 ± 33,65.6 ± 26,49.9 ± 28,,,
CCOC(=O)c1ccco1 [Ethyl 2-furoate],,,,,,,36.6 ± 29,40.3 ± 34,42.8 ± 24,47.9 ± 33,87.4 ± 14,32 ± 28
CCOC(=O)CCSCc1ccco1 [Ethyl 3-(furfurylthio)propionate],50.2 ± 32,41.6 ± 32,77.8 ± 18,58.7 ± 28,19.6 ± 22,32.3 ± 24,,,,,,
CCCCCCCCCCC(=O)OCC [Ethyl undecanoate],,,,,,,46.8 ± 28,38.8 ± 28,50.1 ± 28,49.9 ± 34,69.9 ± 21,52.8 ± 26
CCCCCCCCCCCCCC(=O)OCC [Ethyl myristate],,,,,,,38.1 ± 33,20.7 ± 24,42.8 ± 25,40.5 ± 27,39.1 ± 28,50.6 ± 26
Cc1ccccc1C=O [o-Tolualdehyde],49.1 ± 31,,37.2 ± 31,,60.2 ± 24,,58.9 ± 32,78.1 ± 21,52.7 ± 30,,,
CCCCCC(=O)OC [methyl caproate],36.3 ± 31,,30.5 ± 29,,51.8 ± 22,,56.4 ± 31,68.4 ± 26,56.2 ± 29,,,
N[C@@H](Cc1ccccc1)C(=O)O [L-Phenylalanine],,,,,,,33.7 ± 31,30.1 ± 30,44.3 ± 29,39.1 ± 28,34.4 ± 33,39.9 ± 28

SMILES,"perceived odor familiarity rating [1, 4]","perceived odor familiarity rating [1, 5]","perceived odor intensity rating [2, 4]","perceived odor intensity rating [2, 5]","perceived odor pleasantness rating [3, 4]","perceived odor pleasantness rating [3, 5]","perceived odor familiarity rating [1, 6]","perceived odor intensity rating [2, 6]","perceived odor pleasantness rating [3, 6]","perceived odor familiarity rating [1, 7]","perceived odor intensity rating [2, 7]","perceived odor pleasantness rating [3, 7]"
CCC(=O)OC [Methyl Propionate],32.6 ± 29,,19 ± 23,,55.7 ± 20,,48.6 ± 31,38.7 ± 31,55.8 ± 27,,,
"c1cnc2c(n1)CCCC2 [5,6,7,8-Tetrahydroquinoxaline]",65.5 ± 28,44.4 ± 26,68.2 ± 24,40.3 ± 31,55.6 ± 25,42.9 ± 27,,,,,,
Cc1cccc2nccnc12 [5-Methylquinoxaline],51.8 ± 31,23.7 ± 32,49 ± 31,19.4 ± 29,45.7 ± 27,48.6 ± 30,,,,,,
CC/C=C\CCOC(=O)C(C)C [cis-3-Hexenyl isobutyrate],40.1 ± 30,,30 ± 28,,40.8 ± 22,,55.4 ± 31,73.3 ± 25,47.1 ± 29,,,
Cc1cscn1 [4-Methylthiazole],44.4 ± 29,,57.3 ± 28,,32.7 ± 20,,46.8 ± 31,60.7 ± 30,29.4 ± 27,,,
CCC/C=C/COC(C)=O [trans-2-Hexenyl acetate],38.8 ± 26,,38.3 ± 30,,49 ± 24,,52.4 ± 30,64.3 ± 27,41.2 ± 30,,,
COc1ccc2ccccc2c1 [Nerolin Yara Yara],,,,,,,58 ± 26,71.5 ± 22,61.6 ± 26,59.7 ± 28,82.7 ± 15,54.3 ± 29
CCCCCCCCCC(OC)OC [Decanal dimethyl acetal],,,,,,,41.2 ± 34,29.7 ± 30,53.6 ± 22,47.6 ± 34,70.7 ± 25,50.2 ± 29
O=C1CCCCCCCCCCCCCCO1 [Omega-Pentadecalactone],,,,,,,32 ± 24,23 ± 29,54.1 ± 23,58.9 ± 28,57 ± 27,73.5 ± 19
CCC(C)=O [2-butanone],27.4 ± 31,,19.4 ± 26,,49.6 ± 29,,34.9 ± 32,33 ± 33,43.3 ± 28,,,
CCOC(=O)CCC(=O)OCC [diethyl succinate],,,,,,,44.4 ± 30,47.1 ± 29,57.7 ± 24,53.4 ± 30,70.6 ± 24,60.9 ± 22
CC1COC(c2ccccc2)O1 (stereo not given) [Benzaldehyde propylene glycol acetal],34.2 ± 22,,28.8 ± 32,,47.2 ± 22,,36.3 ± 27,50.5 ± 29,45.5 ± 23,,,
NCC(=O)O [Glycine],,,,,,,40.8 ± 27,17.9 ± 23,53.3 ± 25,47.3 ± 28,50 ± 28,59.4 ± 23
NC(Cc1ccccc1)C(=O)O (racemic) [DL-Phenylalanine (replicate)],,,,,,,39.2 ± 26,39.2 ± 29,50.4 ± 23,48.2 ± 29,66.3 ± 24,44.6 ± 25
COC(C)=O [methyl acetate],,,,,,,29.6 ± 31,23.9 ± 29,36.4 ± 19,57.2 ± 28,66.2 ± 28,26.9 ± 20
C=CCOC(=O)c1ccco1 [Allyl 2-furoate],39.9 ± 27,,27 ± 28,,41.8 ± 21,,40.9 ± 29,60.6 ± 29,31.9 ± 23,,,
O=C1CCc2ccccc2O1 [Dihydrocoumarin],42.2 ± 30,,35.5 ± 30,,64.6 ± 22,,59.7 ± 29,70.9 ± 19,64.8 ± 23,,,
CCCCCCCCCCC(=O)O [Undecanoic acid],,,,,,,41.9 ± 34,57.4 ± 33,31.1 ± 24,45.9 ± 32,81.8 ± 19,22.9 ± 21
CCCCCCCCCCCCOC(C)=O [Lauryl acetate],36.6 ± 27,,23 ± 27,,49.5 ± 26,,33.3 ± 27,33 ± 30,43.5 ± 24,,,
C=CCOC(=O)CCCCCC [Allyl heptanoate],37.8 ± 29,,22.2 ± 26,,55.4 ± 23,,57.9 ± 31,53.9 ± 31,73.7 ± 20,,,
CCCCC/C=C\CCCO [cis-4-Decen-1-ol],40.3 ± 32,,29.2 ± 32,,53.6 ± 27,,49.8 ± 29,65.4 ± 26,49.2 ± 25,,,
O=C(O)CCC(=O)O [Succinic acid],,,,,,,35.5 ± 32,32.3 ± 27,36.1 ± 21,35.5 ± 25,46.2 ± 35,34.6 ± 24
CC(=O)Oc1ccc(C)cc1 [p-Tolyl acetate],46.8 ± 31,,60.9 ± 28,,29 ± 25,,59.6 ± 28,72.6 ± 19,47 ± 26,,,
"Cc1ccc(C)[nH]1 [2,5-Dimethylpyrrole]",48 ± 31,,50.6 ± 30,,48.2 ± 26,,62 ± 28,71.4 ± 23,53 ± 27,,,
CC(=O)c1ccc(C)o1 [2-Acetyl-5-methylfuran],38.2 ± 29,,25.2 ± 31,,47.4 ± 27,,38.2 ± 28,71.5 ± 22,36.5 ± 25,,,
CC(=O)OC(C)C [isopropyl acetate],47.6 ± 27,,20.2 ± 23,,50 ± 23,,40.1 ± 30,13.3 ± 20,51.5 ± 21,,,
c1cnccn1 [pyrazine],36.8 ± 28,,38.5 ± 32,,39.6 ± 24,,35.4 ± 27,18.9 ± 22,44.8 ± 21,,,
